Measured values published in ChEMBL document CHEMBL2390914, “Discovery and SAR of PF-4693627, a potent, selective and orally bioavailable mPGES-1 inhibitor for the potential treatment of inflammation” (Bioorg Med Chem Lett, 2013).

Columns and labels:
[1] = Volume of distribution at steady state in Sprague-Dawley rat at 1 mg/kg, iv; assay type: ADME, organism-based; parameters: dose 1 mg/kg, route intravenous; conditions: in vivo, read-out: Vdss
[2] = Oral bioavailability in Sprague-Dawley rat at 1 mg/kg; assay type: ADME, organism-based; conditions: in vivo
[3] = Mean residence time in Sprague-Dawley rat at 1 mg/kg, po; assay type: ADME, organism-based; parameters: dose 1 mg/kg, route oral; conditions: in vivo
[4] = Plasma concentration in Duncan Hartley guinea pig at 10 mg/kg, po; assay type: ADME, organism-based, Cavia porcellus; parameters: dose 10 mg/kg, route oral; conditions: in vivo

Vd [1] [L/kg]	bioavailability [2] [%]	MRT [3] [h]	concentration [4] [nM]	Compound
3	59	4.42	1200	O=C(N[C@H]1CCC[C@H](CO)C1)C1CCN(c2nc3cc(Cl)c(-c4ccc(Cl)cc4)cc3o2)CC1
14	42	7.22	1600	O=C(N[C@H]1CCC[C@H](CO)C1)C1CCN(c2nc3cc(Cl)c(C(F)(F)F)cc3o2)CC1
6.4	86	7.78	510	O=C(N[C@H]1CCC[C@H](CO)C1)C1CCN(c2nc3cc(Cl)c(-c4ccc(OC(F)(F)F)cc4)cc3o2)CC1
–	–	–	154000	COc1ccc2cc([C@H](C)C(=O)O)ccc2c1 [NAPROXEN]
2.4	17	6.26	–	CCOc1ccc(-c2cc3oc(N4CCC(C(=O)N[C@H]5CCC[C@H](CO)C5)CC4)nc3cc2Cl)cc1
2.1	–	0.44	–	CCc1cc2oc(N3CCC(C(=O)N[C@H]4CCC[C@H](CO)C4)CC3)nc2cc1Cl
1.4	–	0.39	–	O=C(N[C@H]1CCC[C@H](CO)C1)C1CCN(c2nc3cc(Cl)c(C(F)F)cc3o2)CC1
0.72	66	0.7	–	O=C(N[C@H]1CCC[C@H](CO)C1)C1CCN(c2nc3cc(Cl)ccc3o2)CC1
